ChEMBL document CHEMBL2157997, “β-D-2'-α-F-2'-β-C-Methyl-6-O-substituted 3',5'-cyclic phosphate nucleotide prodrugs as inhibitors of hepatitis C virus replication: a structure-activity relationship study” (Bioorg Med Chem Lett, 2012)

Assays:
[1] = Half life in rat at 40 mg/kg, po administered QD measured after 1 day; assay type: ADME, organism-based; design: dose 40 mg/kg, route oral; settings: in vivo
[2] = AUC (infinity) in rat at 40 mg/kg, po administered QD measured after 7 days; assay type: ADME, organism-based; design: time infinity, dose 40 mg/kg, route oral; settings: plasma
[3] = test system: Huh-7; assay: Cytotoxicity against human HuH7 cells up to 100 uM after 8 days by MTT assay; assay type: cell-based; settings: huh-7, 192 h
[4] = test system: Hepatocyte; assay: Prodrug activation in human primary hepatocytes assessed as assessed as Tmax of beta-D-2'-deoxy-2'-alpha-fluoro-2'-beta-C-methylguanosine triphosphate level at 100 uM; assay type: cell-based, Liver
[5] = test system: Rattus norvegicus; assay: Prodrug conversion in rat liver assessed as beta-D-2'-deoxy-2'-alpha-fluoro-2'-beta-C-methylguanosine triphosphate level at 40 mg/kg, po administered QD as repeated dose measured at 4 hrs post-dosing on day 8; assay type: ADME, organism-based; design: dose 40 mg/kg, route oral; settings: in vivo
[6] = test system: Rattus norvegicus; assay: Prodrug activation in rat liver assessed as free nucleoside level at 40 mg/kg, po administered QD as repeated dose measured at 4 hrs post-dosing on day 8; assay type: organism-based; design: dose 40 mg/kg, route oral; settings: in vivo
[7] = test system: Rattus norvegicus; assay: Prodrug activation in rat liver assessed as total nucleotide level at 40 mg/kg, po administered QD as repeated dose measured at 4 hrs post-dosing on day 8; assay type: organism-based; design: dose 40 mg/kg, route oral; settings: in vivo
[8] = Half life in rat plasma; assay type: ADME, cell-free
[9] = Tmax in rat at 40 mg/kg, po administered QD measured after 1 day; assay type: ADME, organism-based; design: dose 40 mg/kg, route oral; settings: in vivo
[10] = Half life in rat at 40 mg/kg, po administered QD measured after 7 days; assay type: ADME, organism-based; design: dose 40 mg/kg, route oral; settings: in vivo
[11] = test system: Huh-7; assay: Prodrug activation in human HuH7 cells infected with HCV genotype 1b assessed as Tmax of beta-D-2'-deoxy-2'-alpha-fluoro-2'-beta-C-methylguanosine triphosphate level at 100 uM; assay type: cell-based; settings: huh-7, 100 µM
[12] = Cytotoxicity against human HuH7 cells; assay type: cell-based; settings: Huh-7 cells
[13] = AUC (infinity) in rat at 40 mg/kg, po administered QD measured after 1 day; assay type: ADME, organism-based; design: time infinity, dose 40 mg/kg, route oral; settings: plasma
[14] = test system: HepG2; assay: Cytotoxicity against human HepG2 cells up to 100 uM after 8 days by MTT assay; assay type: cell-based; settings: hepg2, 192 h
[15] = test system: Rattus norvegicus; assay: Tlast in rat at 40 mg/kg, po administered QD measured after 7 days; assay type: ADME, organism-based; design: dose 40 mg/kg, route oral; settings: in vivo, 168 h
[16] = test system: HepG2; assay: Mitochondrial toxicity against human HepG2 cells assessed as decrease in mitochondrial COX2 DNA up to 100 uM after 14 days by RT-PCR analysis; assay type: cell-based; settings: hepg2, 336 h
[17] = test system: Hepatitis C virus; assay: Antiviral activity against Hepatitis C virus genotype 1b replicon infected in Lunet cells by luciferase reporter gene assay; assay type: functional, Hepacivirus hominis
[18] = AUClast in rat at 40 mg/kg, po administered QD measured after 7 days; assay type: ADME, organism-based; design: dose 40 mg/kg, route oral; settings: plasma
[19] = test system: HepG2; assay: Mitochondrial toxicity against human HepG2 cells assessed as decrease in ribosomal DNA up to 100 uM after 14 days by RT-PCR analysis; assay type: cell-based; settings: hepg2, 336 h
[20] = Half life in human liver S9 fraction; assay type: ADME, subcellular
[21] = test system: Rattus norvegicus; assay: Prodrug activation in rat liver assessed as beta-D-2'-deoxy-2'-alpha-fluoro-2'-beta-C-methylguanosine monophosphate level at 40 mg/kg, po administered QD as repeated dose measured at 4 hrs post-dosing on day 8; assay type: organism-based; design: dose 40 mg/kg, route oral; settings: in vivo
[22] = Cmax in rat at 40 mg/kg, po administered QD measured after 1 day; assay type: ADME, organism-based; design: dose 40 mg/kg, route oral; settings: in vivo
[23] = test system: CCRF-CEM; assay: Cytotoxicity against human CEM cells up to 100 uM after 8 days by MTT assay; assay type: cell-based; settings: 192 h
[24] = test system: Hepatitis C virus; assay: Ratio of PSI-352938 EC90 to compound EC90 for Hepatitis C virus genotype 1b infected in clone A cells; assay type: functional, Hepacivirus hominis
[25] = test system: Hepatitis C virus; assay: Antiviral activity against Hepatitis C virus expressing NS5B S282T mutant by cell-based replicon assay; assay type: functional, Hepacivirus hominis
[26] = Half life in human plasma; assay type: ADME, cell-free
[27] = Half life in simulated intestinal fluid; assay type: physicochemical
[28] = Cmax in rat at 40 mg/kg, po administered QD measured after 7 days; assay type: ADME, organism-based; design: dose 40 mg/kg, route oral; settings: in vivo
[29] = test system: CCRF-CEM; assay: Mitochondrial toxicity against human CEM cells assessed as decrease in ribosomal DNA up to 100 uM after 14 days by RT-PCR analysis; assay type: cell-based; settings: 336 h
[30] = test system: Hepatitis C virus; assay: Antiviral activity against Hepatitis C virus genotype 1b replicon infected in clone A cells assessed as inhibition of viral replication by RT-PCR analysis; assay type: functional, Hepacivirus hominis
[31] = test system: Rattus norvegicus; assay: Prodrug activation in rat liver assessed as beta-D-2'-deoxy-2'-alpha-fluoro-2'-beta-C-methylguanosine diphosphate level at 40 mg/kg, po administered QD as repeated dose measured at 4 hrs post-dosing on day 8; assay type: organism-based; design: dose 40 mg/kg, route oral; settings: in vivo
[32] = test system: Rattus norvegicus; assay: Tlast in rat at 40 mg/kg, po administered QD measured after 1 day; assay type: ADME, organism-based; design: dose 40 mg/kg, route oral; settings: in vivo, 24 h
[33] = Tmax in rat at 40 mg/kg, po administered QD measured after 7 days; assay type: ADME, organism-based; design: dose 40 mg/kg, route oral; settings: in vivo
[34] = test system: BXPC-3; assay: Cytotoxicity against human BxPC3 cells up to 100 uM after 8 days by MTT assay; assay type: cell-based; settings: bxpc-3, 192 h
[35] = test system: CCRF-CEM; assay: Mitochondrial toxicity against human CEM cells assessed as decrease in mitochondrial COX2 DNA up to 100 uM after 14 days by RT-PCR analysis; assay type: cell-based; settings: 336 h
[36] = Half life in simulated gastric fluid; assay type: physicochemical
[37] = AUClast in rat at 40 mg/kg, po administered QD measured after 1 day; assay type: ADME, organism-based; design: dose 40 mg/kg, route oral; settings: plasma
[38] = test system: Hepatitis C virus; assay: Antiviral activity against Hepatitis C virus infected in po dosed human assessed as log reduction in viral load; assay type: functional, Hepacivirus hominis

In the case of `COc1nc(N)nc2c1ncn2[C@@H]1O[C@@H]2COP(=O)(OC3CCCC3)O[C@H]2[C@@]1(C)F` (stereo partly drawn), the half-life [1] is reported as 1.8 h, the AUC(0-inf) [2] is reported as 510 ng·h/mL and the Activity [3] is reported as “Non-toxic”. It also gave a Tmax [4] of 8 h, a Drug metabolism [5] of 3.78 nmol/g and a Drug metabolism [6] of 21.28 nmol/g. The Drug metabolism [7] was 61.37 nmol/g, the half-life [8] was 22 h and the Tmax [9] was 1.67 h. The half-life [10] was 0.93 h, the Tmax [11] was 72 h and the CC90 [12] was > 100000 nM. The AUC(0-inf) [13] was 690 ng·h/mL, the Activity [14] was “Non-toxic” and the Tlast [15] was 7.33 h. The Activity [16] was “Non-toxic”, the EC90 [17] was 37 nM and the AUC(0-t) at 168 h [18] was 510 ng·h/mL. The Activity [19] was “Non-toxic”, the half-life [20] was 20 h and the Drug metabolism [21] was 26.6 nmol/g. For the same molecule, the Cmax [22] was 160 ng/mL, the Activity [23] was “Non-toxic” and the Ratio [24] was “>=10”. The EC90 [25] was 27 nM, the half-life [26] was > 24 h and the half-life [27] was 14 h. The Cmax [28] was 120 ng/mL, the Activity [29] was “Non-toxic” and the EC90 [30] was 102 nM. For the same molecule, the Drug metabolism [31] was 31 nmol/g, the Tlast [32] was 7.33 h and the Tmax [33] was 1.67 h. The Activity [34] was “Non-toxic”, the Activity [35] was “Non-toxic” and the half-life [36] was 9.2 h. The AUC(0-t) at 24 h [37] was 660 ng·h/mL.
Molecule `CC(C)Oc1nc(N)nc2c1ncn2[C@@H]1O[C@@H]2COP(=O)(OC3CCCCC3)O[C@H]2[C@@]1(C)F` (stereo partly drawn) has an EC90 [17] of 300 nM.
`CCOP1(=O)OC[C@H]2O[C@@H](n3cnc4c(OC(C)C)nc(N)nc43)[C@](C)(F)[C@@H]2O1` (stereo partly drawn) gave an EC90 [17] of 2250 nM.
In the case of `CCOc1nc(N)nc2c1ncn2[C@@H]1O[C@@H]2COP(=O)(OC(C)C)O[C@H]2[C@@]1(C)F` (stereo partly drawn) [PSI-352938], the Tmax [4] is reported as 24 h, the half-life [8] is reported as > 24 h and the Tmax [11] is reported as 96 h. For the same molecule, the CC90 [12] was > 100000 nM, the EC90 [17] was 740 nM and the Activity [38] was >5 log10IU/ml. For the same molecule, the half-life [20] was > 24 h, the half-life [26] was > 24 h and the half-life [27] was > 20 h. For the same molecule, the EC90 [30] was 1370 nM and the half-life [36] was > 20 h.
For `COc1nc(N)nc2c1ncn2[C@@H]1O[C@@H]2COP(=O)(OC3CCC3)O[C@H]2[C@@]1(C)F` (stereo partly drawn), the half-life [1] was 1.32 h, the AUC(0-inf) [2] was 13900 ng·h/mL and the Activity [3] was “Non-toxic”. The Tmax [4] was > 48 h, the Drug metabolism [5] was 3.69 nmol/g and the Drug metabolism [6] was 15.5 nmol/g. It also gave a Drug metabolism [7] of 65.93 nmol/g, a half-life [8] of 15.8 h and a Tmax [9] of 1.67 h. For the same molecule, the half-life [10] was 1.43 h, the Tmax [11] was 48 h and the CC90 [12] was > 100000 nM. For the same molecule, the AUC(0-inf) [13] was 9500 ng·h/mL, the Activity [14] was “Non-toxic” and the Tlast [15] was 20 h. The Activity [16] was “Non-toxic”, the EC90 [17] was 46 nM and the AUC(0-t) at 168 h [18] was 13900 ng·h/mL. The Activity [19] was “Non-toxic”, the half-life [20] was 2.6 h and the Drug metabolism [21] was 29.9 nmol/g. The Cmax [22] was 2080 ng/mL, the Activity [23] was “Non-toxic” and the Ratio [24] was “>=10”. The EC90 [25] was 67 nM, the half-life [26] was 18.3 h and the half-life [27] was < 6 h. For the same molecule, the Cmax [28] was 5170 ng/mL, the Activity [29] was “Non-toxic” and the EC90 [30] was 135 nM. For the same molecule, the Drug metabolism [31] was 32.36 nmol/g, the Tlast [32] was 20 h and the Tmax [33] was 4 h. For the same molecule, the Activity [34] was “Non-toxic”, the Activity [35] was “Non-toxic” and the half-life [36] was < 4 h. For the same molecule, the AUC(0-t) at 24 h [37] was 9480 ng·h/mL.
In the case of `CCCOP1(=O)OC[C@H]2O[C@@H](n3cnc4c(OCC)nc(N)nc43)[C@](C)(F)[C@@H]2O1` (stereo partly drawn), the CC90 [12] is reported as > 100000 nM and the EC90 [30] is reported as 13300 nM.
With `CC(C)Oc1nc(N)nc2c1ncn2[C@@H]1O[C@@H]2COP(=O)(OCc3ccccc3)O[C@H]2[C@@]1(C)F` (stereo partly drawn) the CC90 [12] was > 100000 nM and the EC90 [17] was 40 nM.
For `COc1nc(N)nc2c1ncn2[C@@H]1O[C@H](COP(=O)(N[C@@H](C)C(=O)OC(C)C)Oc2ccccc2)[C@@H](O)[C@@]1(C)F` (stereo partly drawn), the Tmax [4] was 8 h, the half-life [8] was < 0.02 h and the Tmax [11] was 24 h. For the same molecule, the half-life [20] was 0.44 h, the half-life [26] was > 24 h and the half-life [27] was > 20 h. The half-life [36] was 16 h.
